Experimental data published in patent US7547729B2, “1,3-diphenylprop-2-en-1-one derivative compounds, preparation method thereof and uses of same” (Genfit, priority 2004, dated 2009).

Experiments:
PPARα = target: T1, PPARα (Homo sapiens, UniProt Q07869); experiment: PPARα/Gal4 transactivation system in COS-7 cells; assay type: cell-based; details: 24 hours
T1 construct: expressed in transfected cells; host or cells: COS-7 cells
T1 sequence (Q07869 239-466 limits assumed): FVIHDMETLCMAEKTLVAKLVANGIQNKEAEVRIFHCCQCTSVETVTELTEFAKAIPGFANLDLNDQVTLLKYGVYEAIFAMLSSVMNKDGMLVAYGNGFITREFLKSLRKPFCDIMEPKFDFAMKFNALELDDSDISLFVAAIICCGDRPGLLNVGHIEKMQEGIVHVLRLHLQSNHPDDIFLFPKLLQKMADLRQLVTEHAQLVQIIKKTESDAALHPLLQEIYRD
Protocol: (§1) COS-7 cells were incubated with different concentrations of the inventive compounds for 24 hours. The results are expressed as the induction factor (ratio of luminescent signal obtained with the compound and that observed without the compound) after the different treatments.
(§2) PPAR activation was tested in vitro in RK13 epitheloid or COS-7 cell lines by measuring the transcriptional activity of chimeras composed of the DNA binding domain of the yeast gal4 transcription factor and the ligand binding domain of the different PPARs. These latter results were then confirmed in cell lines according to the following protocols:
(§3) RK13 cells were from ECACC (Porton Down, UK), COS-7 cells were from the ATCC (American Type Culture Collection) and were grown in DMEM medium supplemented with 10% (VN) fetal calf serum, 100 U/ml penicillin (Gibco, Paisley, UK) and 2 mM L-glutamine (Gibco, Paisley, UK). The culture medium was changed every two days. Cells were kept at 37° C. in a humidified 95% air/5% CO2 atmosphere.
(§4) The plasmids pG5TkpGL3, pRL-CMV, pGal4-hPPARα, pGal4-hPPARγ, pGal4-hPPARδ and pGal4-φ have been described by Raspe, Madsen et al. (1999). The pGal4-mPPARα, pGal4-hPPARγ and pGal4-hPPARδ constructs were obtained by cloning into the pGal4-φ vector of PCR-amplified DNA fragments corresponding to the DEF domains of the human PPARα, PPARγ and PPARδ nuclear receptors.
(§5) RK13 cells were seeded in 24-well culture dishes at 5×10^4 cells/well, COS-7 cells in 96-well culture dishes at 5×10^4 cells/well and transfected for 2 hours with the reporter plasmid pG5TkpGL3 (50 ng/well), the expression vectors pGal4-φ, pGal4-mPPARα, pGal4-hPPARα, pGal4-hPPARγ, pGal4-hPPARδ (100 ng/well) and the transfection efficiency control vector pRL-CMV (1 ng/well) according to the previously described protocol (Raspe, Madsen et al. 1999), then incubated for 36 hours with the test compounds. At the end of the experiment, the cells were lysed (Gibco, Paisley, UK) and luciferase activity was determined with a Dual-Luciferase™ Reporter Assay System kit (Promega, Madison, Wis., USA) for RK13 cells and Steady Glow Luciferase (Promega) for COS-7 cells according to the supplier's instructions as previously described. The protein content of the cell extracts was then measured with the Bio-Rad Protein Assay (Bio-Rad, Munich, Germany) as directed by the supplier.

PPARδ = target: T2, PPARδ (Homo sapiens, UniProt Q03181); experiment: PPARδ/Gal4 transactivation system in COS-7 cells; assay type: cell-based; details: 24 hours
T2 construct: expressed in transfected cells; host or cells: COS-7 cells
T2 sequence (Q03181 211-439 limits assumed): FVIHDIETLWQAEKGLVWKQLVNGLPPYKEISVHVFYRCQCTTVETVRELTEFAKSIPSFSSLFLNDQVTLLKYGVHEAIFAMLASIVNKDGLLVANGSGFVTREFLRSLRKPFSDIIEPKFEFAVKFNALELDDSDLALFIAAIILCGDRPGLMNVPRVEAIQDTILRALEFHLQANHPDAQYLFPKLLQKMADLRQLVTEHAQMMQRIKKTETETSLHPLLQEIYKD
Protocol: as §1, §2, §3, §4, §5

LDL = experiment: Protection against LDL oxidation by copper (conjugated diene formation); assay type: biochemical; details: 10^−4M; for diene oxidation rate: FIG. 7b, absence of compounds 2.5
Protocol: Unless otherwise indicated, the reagents were from Sigma (St Quentin, France). LDL were prepared according to the method described by Lebeau et al. (Lebeau, Furman et al. 2000).
The solutions of test compounds were prepared at 10^−2 M concentration in bicarbonate buffer (pH 9) and diluted in PBS to obtain final concentrations ranging from 0.1 to 100 μM
Prior to oxidation, EDTA was removed from the LDL preparation by dialysis. Oxidation then took place at 30° C. by adding 100 μl of 16.6 μM CuSO4 solution to 160 μL of LDL (125 μg protein/ml) and 20 μl of a test compound solution. The formation of dienes, the species under observation, was followed by measuring optical density at 232 nm in the samples treated with the compounds in the presence or absence of copper. Optical density at 232 nm was measured every 10 minutes for 8 hours in a thermostated spectrophotometer (Tecan Ultra 380). The analyses were performed in triplicate. The compounds were considered to have antioxidant activity when they induced a longer lag phase and reduced the rate of oxidation and the amount of dienes formed in comparison with the control sample.

[1] = system: Apo E2/E2 transgenic mice; experiment: Effects on triglyceride and cholesterol metabolism in Apo E2/E2 transgenic mice; assay type: in vivo; details: gavage, 50 mg/kg/day, seven days
Protocol: FIGS. 19a, 19b, 19c, 19d, 20a, 20b, 20c and 20d illustrate the effects of treatment with compound 2 (Cpd2), compound 13 (Cpd13), compound 33 (Cpd33) and compound 39 (Cpd39) on triglyceride and cholesterol metabolism in Apo E2/E2 transgenic mice treated by gavage with the compound at a dose of 50 mg/kg/day, for seven days.
Apo E2/E2 transgenic mice were housed in a 12-hour light/dark cycle at a constant temperature of 20±3° C. After a 1-week acclimatization period, the mice were weighed and divided into groups of 6 animals selected such that the distribution of body weight was uniform. The test compounds were suspended in carboxymethylcellulose and administered by gastric lavage at the indicated doses, once a day for 7 days. Animals had access to food and water ad libitum. At the end of the experiments, animals were weighed and sacrificed under anesthesia. Blood was collected on EDTA. Plasma was isolated by centrifugation at 3000 rpm for 20 minutes. Liver samples were removed and stored frozen in liquid nitrogen for later analysis.
Lipid concentrations in plasma (total cholesterol and free cholesterol, triglycerides and phospholipids) were determined by a colorimetric assay (Boehringer, Mannheim, Germany) according to the supplier's instructions. Plasma concentrations of apolipoproteins AI, AII and CIII were determined as previously described (Raspe et al. 1999, Asset G et al., Lipids, 1999).

PPARγ = target: T3, PPARγ (Homo sapiens, UniProt P37231); experiment: PPARγ/Gal4 transactivation system in COS-7 cells; assay type: cell-based; details: 24 hours
T3 construct: expressed in transfected cells; host or cells: COS-7 cells
T3 sequence (P37231 238-503 limits assumed): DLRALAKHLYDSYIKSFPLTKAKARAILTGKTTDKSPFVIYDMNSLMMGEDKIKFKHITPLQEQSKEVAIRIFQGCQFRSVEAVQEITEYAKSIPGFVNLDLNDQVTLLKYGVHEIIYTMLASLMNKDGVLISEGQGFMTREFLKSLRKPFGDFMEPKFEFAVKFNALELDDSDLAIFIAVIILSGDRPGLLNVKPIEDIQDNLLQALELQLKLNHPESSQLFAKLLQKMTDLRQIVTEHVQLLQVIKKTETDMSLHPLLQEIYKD
Protocol: as §1, §2, §3, §4, §5

[2] = FIG. 7a, absence of compounds 67.3 minutes

Induction factor (PPARα; 0.001 μM)	Induction factor (PPARα; 0.003 μM)	Induction factor (PPARα; 0.01 μM)	Induction factor (PPARα; 0.03 μM)	Induction factor (PPARα; 0.1 μM)	Induction factor (PPARα; 0.3 μM)	Induction factor (PPARα; 1 μM)	Induction factor (PPARδ; 0.01 μM)	Induction factor (PPARδ; 0.03 μM)	Induction factor (PPARδ; 0.1 μM)	Induction factor (PPARδ; 0.3 μM)	Induction factor (PPARδ; 1 μM)	Induction factor (PPARγ; 0.001 μM)	Induction factor (PPARγ; 0.003 μM)	Induction factor (PPARγ; 0.01 μM)	Induction factor (PPARγ; 0.03 μM)	Induction factor (PPARγ; 0.1 μM)	Induction factor (PPARγ; 0.3 μM)	Induction factor (PPARγ; 1 μM)	Induction factor (PPARγ; 3 μM)	SMILES	further results
1.10	1.58	4.99	10.89	16.87	15.95	17.05	1.50	2.17	3.37	14.00	28.75	0.99	1.15	1.67	2.18	3.01	3.66	4.03	3.89	CSc1c(C)cc(C(=O)/C=C/c2cc(C)c(OC(C)(C)C(=O)O)c(C)c2)cc1C [compound 13, 1-(4-Methylthio-3,5-dimethylphenyl)-3-(4-carboxydimethylmethyloxy-3,5-dimethylphenyl)prop-2-en-1-one]	Induction factor (PPARδ; 3 μM): 27.72; lag phase (LDL; [2]): 219 min; diene oxidation rate (LDL): 1.5 nmol/min/mg of LDL; plasma cholesterol [1]: decrease; plasma triglycerides [1]: decrease
5.23	15.18	19.53	19.71	19.17	20.82	19.97	1.87	5.29	15.01	33.89	74.09	1.18	1.61	2.65	3.54	4.88	5.95	6.93	7.99	Cc1cc(/C=C/C(=O)c2ccc(Oc3ccccc3)cc2)cc(C)c1OC(C)(C)C(=O)O [compound 33, 1-(4-Phenyloxyphenyl)-3-(4-carboxydimethylmethyloxy-3,5-dimethylphenyl)prop-2-en-1-one]	Induction factor (PPARδ; 0.001 μM): 1.17; Induction factor (PPARδ; 0.003 μM): 1.23; Induction factor (PPARδ; 3 μM): 90.84; lag phase (LDL; [2]): 148 min; diene oxidation rate (LDL): 1.4 nmol/min/mg of LDL; total amount of dienes formed (LDL; FIG. 7c, absence of compounds 432.5): 399 nmol/mg of LDL; plasma cholesterol [1]: decrease; plasma triglycerides [1]: decrease; Induction factor (PPARγ; 10 μM): 6.30
1.11	1.33	2.35	4.22	7.16	8.08	8.35						1.43	2.86	3.48	5.04	6.17	6.84	7.24	6.98	Cc1cc(/C=C/C(=O)c2ccc(OCCSC3CCCCC3)cc2)cc(C)c1OC(C)(C)C(=O)O [compound 23, 1-(4-Cyclohexylthioethyloxyphenyl)-3-(4-carboxydimethylmethyloxy-3,5-dimethylphenyl)prop-2-en-1-one]	Induction factor (PPARα; 0.0003 μM): 0.92; Induction factor (PPARα; 3 μM): 7.15; lag phase (LDL; FIG. 4a, copper alone 61 minutes): 96.4 min; diene formation rate (LDL; FIG. 4b, absence of compounds 1.9): 1.3 nmol/min/mg of LDL; total amount of dienes formed (LDL; FIG. 4c, absence of compound 370.9): 340.3 nmol/mg of LDL; Induction factor (PPARγ; 0.0003 μM): 1.02
